These results are taken from patent US7232800B2, “Derivatives of magainin and methods of production thereof” (priority 2001, dated 2007).

One data set relates to mice of Kun-ming species. As to the kind of experiment: Acute toxicity test. The conditions noted are these: one week observation; for Livability: mice. Type of data set: in vivo. As for the experimental part: Six mice of Kun-ming species were divided into three groups randomly. Mice in the first group were intraperitoneally injected with 100 μg Magainin (Leu21, Ser23, Arg24) which is prepared by the method described in example 1, Mice in the second group were injected with 200 μg Magainin (Leu21, Ser23, Arg24), while those in the third group were injected with 1000 μg Magainin (Leu21, Ser23, Arg24). The toxicity of Magainin (Leu21, Ser23, Arg24) was determined by observing the influence of injection to the survival of the mice.

The subject of the next data set is Escherichia coli JM103. The format is cell-based. How it is done: The anti-microbial effect of the Magainin(Leu21, Ser23, Arg24) was conducted according to the following procedures, with the comparison of that of the naturally occurring Magainin.
The bacterial strain of Escherichia coli JM103 and staphylococcus aureus were employed.
The bacteria were cultivated at 37° centigrade, and diluted to 1×10^6 bacteria/ml. 20 mM of the sterilized Tris-HCl buffer (pH6.5) was added. Then the Magainin derivative and the naturally occurring Magainin II with various concentrations were added respectively, and incubated at 37° centigrade for different time, 50 μl of the cultures was taken and spread on an agar plate, and incubated at 37° centigrade overnight. The remaining bacteria colonies were accounted for, and the percent of the killed bacteria was calculated.
The ant-microbial effects of Magainin (Leu21, Ser23, Arg24) were tested with comparison with that of the naturally occurring Magainin II. […] The anti-microbial effect of Magainin (Leu21, Ser23, Arg24) on Staphylococcus aureus can be seen from table 4, and the result of time-kill study of Magainin (Leu21, Ser23, Arg24) was shown in FIG. 1.

Data set [1] has as its system erythrocytes (blood derived from SD rat). As to the kind of experiment: Hemolysis test. The format is cell-based. How it is done:
3 ml of 0.9% sodium chloride solution was added into three tubes separately, followed by addition of 100 μl blood derived from SD rat (provided by Shanghai Laboratory Animal Center, Chinese Academic Sciences) respectively.
As a negative control, the naturally occurring Magainin peptide (obtained from Sigma) was dissolved in sterile water, and the Magainin peptide solution with a concentration of 1 mg/ml was prepared. 300 μl, 1.5 ml and 3 ml of such solution were added into three tubes respectively. After incubation at room temperature for 30 minutes, centrifugation was conducted at 3000 rpm, and supernates in three tubes was taken to determine the optical density at 590 nm with a spectrophotometer.
In the testing group, Hemolysis effect of the Magainin (Leu21, Ser23, Arg24) was examined. Magainin (Leu21, Ser23, Arg24) peptide was dissolved in sterile water to prepare the solution with a concentration of 1 mg/ml, 300 μl, 1.5 ml and 3 m of the solution were added into three tubes respectively, and the hemolysis test was conducted using the same method as applied to the negative control group.
In the positive control group, 0.1% of Triton X-100 (obtained from Sigma Aldrich) was employed aid the hemolysis test was performed according to the steps prescribed above.
In this test, erythrocyte will be precipitated after centrifigation and supernate appear red in the circumstance hemolysis has occurred.

Where two headings read alike, the source gives them in different places. Where no end group is shown, it is not given here.

As for “GIGKFLHSAKKFGKAFVGEILNSR [Magainin (Leu21, Ser23, Arg24)]”, the Livability in the data set on mice of Kun-ming species (100 μg intraperitoneal injection), in the data set with mice of Kun-ming species (200 μg intraperitoneal injection) and with mice of Kun-ming species (1000 μg intraperitoneal injection) was 100% throughout. The “survival of the mice (in words)” value in the data set with mice of Kun-ming species (100, 200 and 1000 μg intraperitoneal) is given as “all survived”. Besides, the Bacteria killed % in the data set on Escherichia coli JM103 (10 μg/ml, 3 hr) is on record as 71.3%; in the data set on Escherichia coli JM103 (10 μg/ml, 4 hr) it was 44.2%; in the data set on Escherichia coli JM103 (20 μg/ml, 3 hr) it was 97.8%; in the data set with Escherichia coli JM103 (20 μg/ml, 4 hr), 99.1%.

For the substance “GIGKFLHSAKKFGKAFVGEIMNS [Naturally occurring Magainin, Magainin II]”, the Hemolysis % is on record as 0% in data set [1] (100 μg/ml, 30 minutes room temperature); 0% in data set [1] (500 μg/ml, 30 minutes room temperature); 1.9% in data set [1] (1000 μg/ml, 30 minutes room temperature). In addition, the Bacteria killed % in the data set with Escherichia coli JM103 (10 μg/ml, 3 hr) amounted to 75.4%; with Escherichia coli JM103 (10 μg/ml, 4 hr) it was 84.9%; in the data set on Escherichia coli JM103 (20 μg/ml, 3 hr), 97.5%; in the data set with Escherichia coli JM103 (20 μg/ml, 4 hr), 99.2%.

Triton X-100 [Tritonx-100]: in data set [1] (0.1%, positive control), the Hemolysis % is on record as 100%.
